From publication PMC6934184, “Selective DNA-PKcs inhibition extends the therapeutic index of localized radiotherapy and chemotherapy” (The Journal of Clinical Investigation, 2019)

System: skin immediately surrounding the tumor
Assay: γH2AX foci in skin surrounding subcutaneous Calu-6 tumor
Type: in vivo, mouse
Details: 5 hours after 3.3 Gy, 30 mg/kg oral, P = 0.09
Experimental: Subcutaneous non–small cell lung cancer xenografts were generated in CD-1 nude or BALB/c nude mice using A549 and Calu-6 cells, respectively, as previously described ([53]). When tumors reached 100 mm^3, mice were randomized into 4 groups (n = 7–9 per group) to receive (a) vehicle (orally) 30 minutes before mock radiation, (b) NU5455 (30 mg/kg orally) 30 minutes before mock radiation, (c) targeted tumor radiation at a single dose of 3.3 or 10 Gy, or (d) NU5455 (30 mg/kg orally) 30 minutes before 3.3 Gy or 10 Gy targeted tumor radiation. […]
NSCLC subcutaneous xenografts were generated as previously described ( 53). […] Mouse weights and tumor volumes (1/2 x length x width x depth) were measured three times a week.
Targeted radiotherapy in subcutaneous and orthotopic NSCLC xenograft models When subcutaneous xenografts reached 100 mm3, mice were randomized into four groups (n = 7 - 11/group): (i) N-Methyl-2-pyrrolidone (NMP): 30% Encapsin : PEG400 (1:6:3 v/v/v) vehicle p.o. 30 minutes prior to mock radiation. […] The remaining mice were monitored for tumor growth until the sizes of tumo rs reached 400 mm 3 or up to 38 days after initiation of […]
Tissues were fixed in 4% paraformaldehyde (PFA) and paraffin -embedded. […] The percentage of γH2AX and 53BP1 positive nuclei in lung epithelial cells was quantified manually in normal lung samples across 5 randomly-chosen fields of view per […]

CN(C(=O)CN1CCOCC1)c1ccc2sc3c(-c4cccc5c(=O)cc(N6CC7CCC(C6)O7)oc45)cccc3c2c1 [NU5455]
radiation-induced γH2AX foci, fold augmented with NU5455: 1.6 fold
